In paper PMC5421785, “Citrullination only infrequently impacts peptide binding to HLA class II MHC” (PLoS ONE, 2017):
Read-outs that look alike come from different tables or passages of the source. Square brackets hold non-standard residues; d marks the D form. Ends that are not written are not given here. Peptide text beside a SMILES is read from it. Cit = NC(=O)NCCC[C@H](N)C(=O)O

How the values were obtained:
HLA-DRB1*01:01 = target: T1, HLA-DRB1*01:01 (Homo sapiens, UniProt P01903+P01911, A100R/D57E/F55L/F60I/F76Y/I96L/L162R/M171V/P40L/Q125E/R42F/V115G/Y59C); assay: HLA class II peptide binding, inhibition of radiolabeled peptide binding to purified MHC; details: for DRB1*01:01 binding capacity, WT/cit ratio: ratio of WT IC50 to Cit IC50, >1 = citrullination increases binding
T1 construct: EBV transformed homozygous cell lines were used as sources of MHC molecules; endogenous in cells; host or cells: EBV transformed homozygous cell lines

HLA-DRB1*04:01 = target: T2, HLA-DRB1*04:01 (Homo sapiens, UniProt P01903+P01911, A100K/A169T/F76Y/I96L/K127E/L162R/M171V/N62H/P40V/Q125Y/R42H/S133A/S149N/S66Y/V115G/V209L/W38E); assay: as above; details: for DRB1*04:01 binding capacity, WT/cit ratio: ratio of WT IC50 to Cit IC50, >1 = citrullination increases binding
T2 construct: EBV transformed homozygous cell lines were used as sources of MHC molecules; endogenous in cells; host or cells: EBV transformed homozygous cell lines

[1] = citrullinated 15-mer (X), purified MHC, inhibition of radiolabeled peptide binding, dash = IC50 >40,000 nM, read-out: DRB1*01:01 binding capacity, Cit peptide (IC50 nM)
[2] = citrullinated 15-mer (X), purified MHC, inhibition of radiolabeled peptide binding, dash = IC50 >40,000 nM, read-out: DRB1*04:01 binding capacity, Cit peptide (IC50 nM)
[3] = citrullinated 15-mer peptide (X = citrulline), purified HLA-DRB1*01:01, read-out: DRB1*01:01 binding capacity, Cit peptide (IC50 nM)
[4] = citrullinated 15-mer peptide (X = citrulline), purified HLA-DRB1*04:01, read-out: DRB1*04:01 binding capacity, Cit peptide (IC50 nM)
[5] = wild-type (unmodified Arg) 15-mer peptide, purified HLA-DRB1*01:01, read-out: DRB1*01:01 binding capacity, WT peptide (IC50 nM)
[6] = wild-type (unmodified Arg) 15-mer peptide, purified HLA-DRB1*04:01, read-out: DRB1*04:01 binding capacity, WT peptide (IC50 nM)

CC[C@H](C)[C@H](NC(=O)[C@H](CC(=O)O)NC(=O)[C@H](CCC(=O)O)NC(=O)[C@H](C)NC(=O)[C@H](CC(C)C)NC(=O)[C@H](CC(N)=O)NC(=O)[C@@H](N)CC(=O)O)C(=O)N[C@@H](CCSC)C(=O)N[C@@H](CCCNC(=N)N)C(=O)N[C@@H](CC(C)C)C(=O)N[C@@H](CCCNC(N)=O)C(=O)N[C@@H](CCC(=O)O)C(=O)N[C@@H](CCCCN)C(=O)N[C@@H](CC(C)C)C(=O)N[C@@H](CCC(N)=O)C(=O)O [DNLAEDIMRLXEKLQ] (H-DNLAEDIMRL[Cit]EKLQ-OH)
IC50 (HLA-DRB1*01:01; [1]): 1610 nM | IC50 (HLA-DRB1*04:01; [2]): > 40000 nM

CSCC[C@H](NC(=O)[C@H](Cc1ccc(O)cc1)NC(=O)[C@H](CCC(N)=O)NC(=O)[C@H](CC(C)C)NC(=O)[C@@H]1CCCN1C(=O)[C@H](CC(=O)O)NC(=O)[C@@H]1CCCN1C(=O)CNC(=O)[C@H](CCCCN)NC(=O)[C@H](CCC(=O)O)NC(=O)[C@H](CCCNC(N)=O)NC(=O)[C@@H]1CCCN1C(=O)CNC(=O)[C@@H](N)CC(C)C)C(=O)N[C@@H](CCCNC(=N)N)C(=O)O [LGPXEKGPDPLQYMR] (H-LGP[Cit]EKGPDPLQYMR-OH)
IC50 (HLA-DRB1*01:01; [3]): 10900 nM | IC50 (HLA-DRB1*04:01; [4]): > 40000 nM

C[C@H](NC(=O)[C@@H]1CCCN1C(=O)CNC(=O)[C@@H]1CCCN1)C(=O)NCC(=O)N1CCC[C@H]1C(=O)N[C@H](C(=O)NCC(=O)N[C@@H](CCCCN)C(=O)N[C@@H](CCC(N)=O)C(=O)NCC(=O)N[C@@H](CC(=O)O)C(=O)N[C@@H](CCCNC(N)=O)C(=O)NCC(=O)N[C@@H](CCC(=O)O)C(=O)O)[C@@H](C)O [PGPAGPTGKQGDXGE] (H-PGPAGPTGKQGD[Cit]GE-OH; N-terminus and C-terminus assumed)
IC50 (HLA-DRB1*01:01; [3]): > 40000 nM | DRB1*01:01 binding capacity, WT/cit ratio (HLA-DRB1*01:01): 1.0 | IC50 (HLA-DRB1*04:01; [4]): > 40000 nM | DRB1*04:01 binding capacity, WT/cit ratio (HLA-DRB1*04:01): 1.0

CC[C@H](C)[C@H](NC(=O)[C@H](CC(N)=O)NC(=O)[C@H](CCC(N)=O)NC(=O)[C@H](CO)NC(=O)CNC(=O)[C@H](CCC(=O)O)NC(=O)[C@@H](NC(=O)[C@H](CO)NC(=O)[C@H](CC(C)C)NC(=O)[C@H](CC(C)C)NC(=O)[C@H](CCCNC(N)=O)NC(=O)[C@H](CC(C)C)NC(=O)[C@H](Cc1ccccc1)NC(=O)[C@@H](N)[C@@H](C)O)[C@@H](C)O)C(=O)N[C@H](C(=O)O)[C@@H](C)O [TFLXLLSTEGSQNIT] (H-TFL[Cit]LLSTEGSQNIT-OH)
IC50 (HLA-DRB1*01:01; citrullinated peptide as listed (X at Cit position), read-out: DRB1*01:01 binding capacity Cit peptide (IC50 nM)): 5.6 nM | IC50 (HLA-DRB1*04:01; citrullinated peptide as listed (X at Cit position), read-out: DRB1*04:01 binding capacity Cit peptide (IC50 nM)): 55 nM

CC[C@H](C)[C@H](NC(=O)[C@H](C)NC(=O)[C@H](CC(=O)O)NC(=O)[C@H](C)NC(=O)[C@H](CC(C)C)NC(=O)[C@H](CO)NC(=O)[C@@H](N)Cc1ccccc1)C(=O)N[C@@H](CC(N)=O)C(=O)N[C@H](C(=O)N[C@@H](CCC(=O)O)C(=O)N[C@@H](Cc1ccccc1)C(=O)N[C@@H](CCCCN)C(=O)N[C@@H](CC(N)=O)C(=O)N[C@H](C(=O)N[C@@H](CCCNC(N)=O)C(=O)O)[C@@H](C)O)[C@@H](C)O [FSLADAINTEFKNTX] (H-FSLADAINTEFKNT[Cit]-OH)
IC50 (HLA-DRB1*01:01; [1]): 41 nM | IC50 (HLA-DRB1*04:01; [2]): 22600 nM

CC(C)C[C@H](NC(=O)[C@H](CCCNC(N)=O)NC(=O)[C@H](C)N)C(=O)N[C@@H](CC(=O)O)C(=O)N[C@@H](CC(C)C)C(=O)N[C@@H](CCC(=O)O)C(=O)N[C@@H](CCCNC(=N)N)C(=O)N[C@@H](CCCCN)C(=O)N[C@H](C(=O)N[C@@H](CCC(=O)O)C(=O)N[C@@H](CO)C(=O)N[C@@H](CC(C)C)C(=O)N[C@@H](CCC(N)=O)C(=O)N[C@@H](CCC(=O)O)C(=O)N[C@@H](CCC(=O)O)C(=O)O)C(C)C [AXLDLERKVESLQEE] (H-A[Cit]LDLERKVESLQEE-OH)
IC50 (HLA-DRB1*01:01; [1]): 5290 nM | IC50 (HLA-DRB1*04:01; [2]): 9150 nM

C[C@H](NC(=O)CNC(=O)[C@H](CCCCN)NC(=O)[C@@H]1CCCN1C(=O)CNC(=O)[C@H](CC(=O)O)NC(=O)[C@H](CCCCN)NC(=O)CNC(=O)[C@H](CO)NC(=O)[C@@H]1CCCN1C(=O)CN)C(=O)N[C@@H](CCCNC(N)=O)C(=O)NCC(=O)N[C@@H](CC(=O)O)C(=O)N[C@@H](CO)C(=O)O [GPSGKDGPKGAXGDS] (H-GPSGKDGPKGA[Cit]GDS-OH; N-terminus and C-terminus assumed)
IC50 (HLA-DRB1*01:01; [3]): > 40000 nM | DRB1*01:01 binding capacity, WT/cit ratio (HLA-DRB1*01:01): 1.0 | IC50 (HLA-DRB1*04:01; [4]): > 40000 nM | DRB1*04:01 binding capacity, WT/cit ratio (HLA-DRB1*04:01): 1.0

CC(C)C[C@H](NC(=O)[C@H](CC(N)=O)NC(=O)[C@@H](NC(=O)[C@H](CCC(=O)O)NC(=O)[C@H](CCCNC(N)=O)NC(=O)[C@H](CC(C)C)NC(=O)[C@H](CC(N)=O)NC(=O)[C@@H](N)CC(C)C)[C@@H](C)O)C(=O)N[C@@H](CC(=O)O)C(=O)N[C@@H](CO)C(=O)N[C@@H](CC(C)C)C(=O)N1CCC[C@H]1C(=O)N[C@@H](CC(C)C)C(=O)N[C@H](C(=O)N[C@@H](CC(=O)O)C(=O)O)C(C)C [LNLXETNLDSLPLVD]
IC50 (HLA-DRB1*01:01; [3]): 69 nM | IC50 (HLA-DRB1*04:01; [4]): 4340 nM

CSCC[C@H](NC(=O)[C@H](CCCNC(=N)N)NC(=O)[C@H](CCCNC(=N)N)NC(=O)[C@@H](N)Cc1ccc(O)cc1)C(=O)N[C@@H](Cc1ccccc1)C(=O)NCC(=O)NCC(=O)N1CCC[C@H]1C(=O)NCC(=O)N[C@H](C(=O)N[C@@H](C)C(=O)N[C@@H](CO)C(=O)N[C@@H](CCCNC(N)=O)C(=O)N1CCC[C@H]1C(=O)N[C@@H](CO)C(=O)O)[C@@H](C)O [YRRMFGGPGTASXPS] (H-YRRMFGGPGTAS[Cit]PS-OH)
IC50 (HLA-DRB1*01:01; [1]): 334 nM | IC50 (HLA-DRB1*04:01; [2]): 6870 nM

CC(C)C[C@H](NC(=O)[C@H](CCCNC(=N)N)NC(=O)[C@@H](NC(=O)[C@H](C)NC(=O)[C@H](CO)NC(=O)[C@H](CO)NC(=O)[C@H](CCCNC(=N)N)NC(=O)[C@@H](NC(=O)[C@H](C)NC(=O)[C@@H](N)Cc1ccc(O)cc1)[C@@H](C)O)C(C)C)C(=O)N[C@@H](CCCNC(N)=O)C(=O)N[C@@H](CO)C(=O)N[C@@H](CO)C(=O)N[C@H](C(=O)N1CCC[C@H]1C(=O)O)C(C)C [YATRSSAVRLXSSVP] (H-YATRSSAVRL[Cit]SSVP-OH)
IC50 (HLA-DRB1*01:01; [1]): 31 nM | IC50 (HLA-DRB1*04:01; [2]): 338 nM

CC[C@H](C)[C@H](NC(=O)CNC(=O)[C@H](CCCNC(N)=O)NC(=O)[C@H](CCC(N)=O)NC(=O)CNC(=O)[C@H](C)NC(=O)[C@H](CC(C)C)NC(=O)CNC(=O)[C@H](CCC(N)=O)NC(=O)[C@@H]1CCCN1C(=O)CNC(=O)[C@@H]1CCCN1)C(=O)N[C@H](C(=O)NCC(=O)N[C@@H](CC(C)C)C(=O)O)C(C)C [PGPQGLAGQXGIVGL]
IC50 (HLA-DRB1*01:01; [3]): 7.1 nM | IC50 (HLA-DRB1*04:01; [4]): 7920 nM

LVAAVLRCQGQDVQE [Collagen 16 WT]
IC50 (HLA-DRB1*01:01; [5]): 21 nM | IC50 (HLA-DRB1*04:01; [6]): 4730 nM

CC[C@H](C)[C@H](NC(=O)[C@@H](NC(=O)[C@H](CCC(N)=O)NC(=O)CNC(=O)[C@H](CC(=O)O)NC(=O)[C@H](CCCNC(N)=O)NC(=O)[C@@H](NC(=O)[C@H](CCC(=O)O)NC(=O)[C@@H](NC(=O)[C@@H](N)[C@@H](C)O)C(C)C)[C@@H](C)O)C(C)C)C(=O)N[C@@H](CC(N)=O)C(=O)N[C@@H](CCC(=O)O)C(=O)N[C@H](C(=O)N[C@@H](CO)C(=O)N[C@@H](CCC(N)=O)C(=O)O)[C@@H](C)O [TVETXDGQVINETSQ] (H-TVET[Cit]DGQVINETSQ-OH)
IC50 (HLA-DRB1*01:01; [3]): 7860 nM | IC50 (HLA-DRB1*04:01; [4]): 14300 nM

QAKQESTEYRRQVQS [Vimentin 311 WT]
IC50 (HLA-DRB1*01:01; [5]): 1500 nM | IC50 (HLA-DRB1*04:01; [6]): 17000 nM

CC[C@H](C)[C@H](NC(=O)[C@H](CCC(=O)O)NC(=O)[C@@H](NC(=O)[C@H](CC(=O)O)NC(=O)[C@H](CC(C)C)NC(=O)[C@H](C)NC(=O)[C@@H](N)CCSC)[C@@H](C)CC)C(=O)N[C@@H](C)C(=O)N[C@H](C(=O)N[C@@H](Cc1ccc(O)cc1)C(=O)N[C@@H](CCCNC(N)=O)C(=O)N[C@@H](CCCCN)C(=O)N[C@@H](CC(C)C)C(=O)N[C@@H](CC(C)C)C(=O)N[C@@H](CCC(=O)O)C(=O)O)[C@@H](C)O [MALDIEIATYXKLLE] (H-MALDIEIATY[Cit]KLLE-OH)
IC50 (HLA-DRB1*01:01; [3]): 64 nM | IC50 (HLA-DRB1*04:01; [4]): 4950 nM

TNESLERQMREMEEN [Vimentin 336 WT]
IC50 (HLA-DRB1*01:01; [5]): 15900 nM | IC50 (HLA-DRB1*04:01; [6]): > 40000 nM

CC(C)C[C@H](NC(=O)[C@H](C)NC(=O)[C@H](CO)NC(=O)CNC(=O)[C@H](CC(C)C)NC(=O)[C@H](CO)NC(=O)[C@H](Cc1ccc(O)cc1)NC(=O)[C@@H](NC(=O)[C@@H](N)CCCNC(=N)N)[C@@H](C)O)C(=O)N[C@@H](CCCNC(=N)N)C(=O)N1CCC[C@H]1C(=O)N[C@@H](CO)C(=O)N[C@H](C(=O)N[C@@H](CO)C(=O)N[C@@H](CCCNC(N)=O)C(=O)O)[C@@H](C)O [RTYSLGSALRPSTSX] (H-RTYSLGSALRPSTS[Cit]-OH)
IC50 (HLA-DRB1*01:01; [1]): 21 nM | IC50 (HLA-DRB1*04:01; [2]): 1090 nM
